This is an account of results in ChEMBL document CHEMBL1201862, “PubChem BioAssay data set” (2004).

Counter-ions that a name gives are not always drawn. Active and inactive are the calls of the source.

Assay [1] has as its target T1, Probable nicotinate-nucleotide adenylyltransferase (Staphylococcus aureus (strain N315), UniProt P65502). In kind it is functional, Staphylococcus aureus subsp. aureus N315. Conditions: read-out: IC50_Mean.
In assay [2] the target is Induced myeloid leukemia cell differentiation protein Mcl-1 (Homo sapiens, UniProt Q07820). Type of assay: functional.
Assay [3] deals with T2, Carboxy-terminal domain RNA polymerase II polypeptide A small phosphatase 1 (Homo sapiens, UniProt Q9GZU7).
T2 sequence (Q9GZU7 whole entry): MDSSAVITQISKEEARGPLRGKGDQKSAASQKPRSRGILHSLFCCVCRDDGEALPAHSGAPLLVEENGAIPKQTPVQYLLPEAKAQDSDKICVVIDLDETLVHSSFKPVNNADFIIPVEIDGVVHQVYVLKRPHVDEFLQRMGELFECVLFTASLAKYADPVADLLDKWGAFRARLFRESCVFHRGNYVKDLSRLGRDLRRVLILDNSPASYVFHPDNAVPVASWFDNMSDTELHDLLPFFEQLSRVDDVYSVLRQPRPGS
Briefly: inhibitors of CTDSP1, concentration-response testing, biochemical assay, absorbance-based, actives from ultra-high-throughput screening (AID 540297). Type of assay: functional.

Assay [4] deals with T1, Probable nicotinate-nucleotide adenylyltransferase. In kind it is functional, Staphylococcus aureus subsp. aureus N315.
Assay [5] deals with DNA (cytosine-5)-methyltransferase 1 (Homo sapiens, UniProt P26358). Briefly: DNMT1 methyltransferase inhibitors, confirmation, biochemical, fluorescent molecular beacon (AID 602386). In kind it is functional.
Assay [6] can be described thus: C. albicans growth with fluconazole, confirmation, fluorescence, retest (AID 2467). Type of assay: functional, cell-based.
Assay [7] in a line: NIH-3T3 fibroblast cytotoxicity, dose response, cytotoxicity control, cell-based, fluorescence, Alamar Blue, secondary assay (AID 2327).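 Note: NIH-3T3 mouse fibroblasts cultured with fluconazole at 8 µg/mL.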 In kind it is functional. For orientation: Resazurin is reduced to fluorescent resorufin, in cell work by metabolically active cells.
For assay [8], the target named is T3, Mitochondrial peptide methionine sulfoxide reductase (Bos taurus, UniProt P54149).
T3 sequence (P54149 whole entry): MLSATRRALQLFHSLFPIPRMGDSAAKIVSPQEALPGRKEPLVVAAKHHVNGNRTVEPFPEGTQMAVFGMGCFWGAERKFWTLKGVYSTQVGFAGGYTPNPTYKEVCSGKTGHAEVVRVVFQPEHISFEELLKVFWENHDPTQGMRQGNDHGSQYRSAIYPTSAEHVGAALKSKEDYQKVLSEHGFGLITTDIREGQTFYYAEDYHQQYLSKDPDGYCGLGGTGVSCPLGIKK
Briefly: Absorbance-based biochemical high throughput dose response assay for activators of Methionine sulfoxide reductase A (MsrA). In kind it is functional.

The target of assay [9] is T4, High affinity choline transporter 1 (Homo sapiens, UniProt Q9GZV3).
T4 sequence (Q9GZV3 whole entry): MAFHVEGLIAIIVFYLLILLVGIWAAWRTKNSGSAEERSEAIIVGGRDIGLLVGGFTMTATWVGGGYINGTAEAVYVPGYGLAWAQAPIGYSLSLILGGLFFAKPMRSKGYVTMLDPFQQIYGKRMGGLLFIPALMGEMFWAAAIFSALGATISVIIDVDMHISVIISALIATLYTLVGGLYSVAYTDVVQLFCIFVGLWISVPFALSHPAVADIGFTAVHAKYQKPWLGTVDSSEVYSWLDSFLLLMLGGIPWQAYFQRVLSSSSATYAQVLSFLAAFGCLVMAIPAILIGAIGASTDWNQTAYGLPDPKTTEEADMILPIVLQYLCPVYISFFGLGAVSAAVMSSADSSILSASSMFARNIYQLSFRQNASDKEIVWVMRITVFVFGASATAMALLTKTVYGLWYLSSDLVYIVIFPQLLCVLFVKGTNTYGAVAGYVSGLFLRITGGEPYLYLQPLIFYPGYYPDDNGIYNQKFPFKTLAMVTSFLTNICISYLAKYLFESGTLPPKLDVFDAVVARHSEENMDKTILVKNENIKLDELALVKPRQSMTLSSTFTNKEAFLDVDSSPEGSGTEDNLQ
In words: CHT inhibitors, dose response, cell-based, 5-point CRC, membrane potential dye (AID 504840). In kind it is functional.

Assay [10] has as its target T4, High affinity choline transporter 1. Briefly: CHT inhibitors, dose response, cell-based, 10-point CRC, membrane potential dye (AID 588401).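 Note: membrane potential dye fluorescence of choline-evoked depolarization via CHT.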 In kind it is functional.
In assay [11] the target is T5, Sentrin-specific protease 1 (Homo sapiens, UniProt Q9P0U3). In words: potency of human SENP1 inhibitors, dose response, biochemical, kinetic FRET (AID 651697). In kind it is functional. Conditions: read-out: IC50_Mean.
The target in assay [12] is T5, Sentrin-specific protease 1. Briefly: Dose response confirmation of small molecule inhibitors of the catalytic domain of the SUMO protease, SENP1 in a FRET assay. Type of assay: functional. Particulars: read-out: IC50_Mean.
The target in assay [13] is T6, Small ubiquitin-related modifier 1 (Homo sapiens, UniProt P63165). In words: inhibitors of SUMO1 peptide binding, dose response, biochemical, fluorescence polarization, uHTS hits (AID 624382). Type of assay: functional. Conditions: read-out: IC50_Mean. Background: Fluorescence polarisation rises when a labelled molecule tumbles more slowly, as on binding a larger partner.

In assay [14] the target is T6, Small ubiquitin-related modifier 1. Briefly: inhibitors of SUMO1 partner interactions, dose response, biochemical, FRET (AID 624383). In kind it is functional. Particulars: read-out: IC50_Mean.
The nature of assay [15]: AlphaScreen signal interference compounds, dose response, artefact control for ARNT-TACC3 interaction inhibitor project, biochemical, luminescence, cherry-pick (AID 651705).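 Note: AlphaScreen bead proximity signal that flags compounds interfering with the detection technology; potency reflects signal decrease which marks the compound as an assay artifact.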 In kind it is functional. A general note: Alpha assays give light when donor and acceptor beads are brought close together.
Assay [16] in a line: StAR promoter reporter inhibition counter-screen, dose response, counter-screen for LRH-1 inverse agonist project, cell-based, luminescence, luciferase reporter (AID 651969). In kind it is functional.
In assay [17] the target is Nuclear receptor subfamily 5 group A member 2 (Homo sapiens, UniProt O00482). Type of assay: functional, cell-based.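 Note: HEK293T cells transfected with LRH-1 and a StAR promoter luciferase reporter; potency for inhibitors that lower LRH-1 driven reporter light.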
In another assay the target is Steroidogenic factor 1 (Homo sapiens, UniProt Q13285). Briefly: Counterscreen for inverse agonists of the liver receptor homolog-1 (LRH-1; NR5A2): Luminescence-based cell-based high throughput dose response assay to identify inverse agonists of the Steroidogenic Factor 1 Nuclear Receptor (SF1; NR5A1). Type of assay: functional.
Assay [18] deals with Cell division cycle 7-related protein kinase (Homo sapiens, UniProt O00311). In kind it is functional.
Assay [19] concerns the target Homeodomain-interacting protein kinase 2 (Homo sapiens, UniProt Q9H2X6). Type of assay: functional.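 Note: measured within a kinome-wide kinase profiling panel, HIPK2 being one panel member.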
Assay [20] addresses Interleukin-1 receptor-associated kinase 4 (Homo sapiens, UniProt Q9NWZ3). In kind it is functional.
The target of assay [21] is Serine/threonine-protein kinase pim-1 (Homo sapiens, UniProt P11309). Type of assay: functional.
Assay [22] concerns the target Glycogen synthase kinase-3 beta (Homo sapiens, UniProt P49841). In kind it is functional.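 Note: value comes from a broad kinome profiling panel, with GSK3B as the panel member.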
Assay [23] has as its target Dual specificity protein kinase CLK4 (Homo sapiens, UniProt Q9HAZ1). Type of assay: functional.
Assay [24] deals with cAMP-dependent protein kinase catalytic subunit alpha (Homo sapiens, UniProt P17612). Type of assay: functional.
For assay [25], the target named is T7, DNA repair protein RAD52 homolog (Homo sapiens, UniProt P43351).
T7 sequence (P43351 whole entry): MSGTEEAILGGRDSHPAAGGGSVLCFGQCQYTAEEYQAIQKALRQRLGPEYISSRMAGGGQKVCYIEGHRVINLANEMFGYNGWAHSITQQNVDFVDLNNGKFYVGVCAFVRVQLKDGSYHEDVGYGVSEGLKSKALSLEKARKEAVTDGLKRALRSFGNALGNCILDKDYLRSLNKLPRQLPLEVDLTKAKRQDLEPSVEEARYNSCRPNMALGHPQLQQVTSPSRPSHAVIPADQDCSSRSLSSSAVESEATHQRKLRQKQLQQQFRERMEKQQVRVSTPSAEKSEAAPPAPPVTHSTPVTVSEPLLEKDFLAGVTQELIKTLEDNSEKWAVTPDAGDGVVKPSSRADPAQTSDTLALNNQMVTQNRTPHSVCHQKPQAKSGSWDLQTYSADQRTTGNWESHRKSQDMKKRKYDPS
In kind it is functional, biochemical.

For assay [26], the target named is DNA repair and recombination protein RAD54-like (Homo sapiens, UniProt Q92698). Briefly: inhibitors of human RAD54 branch migration, confirmation, biochemical, fluorescence, cherry-picked samples, dose series (AID 651657). Type of assay: functional.
Assay [27] has as its target T8, Low molecular weight phosphotyrosine protein phosphatase (Homo sapiens, UniProt P24666).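 Note: Dose-response confirmation assay measuring inhibition of LMPTP enzyme activity by fluorescence intensity read-out.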
T8 sequence (P24666 whole entry): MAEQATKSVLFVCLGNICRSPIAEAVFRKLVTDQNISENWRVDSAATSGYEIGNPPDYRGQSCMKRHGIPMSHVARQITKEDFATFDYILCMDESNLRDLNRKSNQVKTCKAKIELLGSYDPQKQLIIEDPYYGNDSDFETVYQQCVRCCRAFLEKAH
In kind it is functional. Conditions: read-out: IC50_Mean.

Assay [28] has as its target T9, Tyrosine-protein phosphatase non-receptor type 22 (Homo sapiens, UniProt Q9Y2R2).
T9 sequence (Q9Y2R2 whole entry): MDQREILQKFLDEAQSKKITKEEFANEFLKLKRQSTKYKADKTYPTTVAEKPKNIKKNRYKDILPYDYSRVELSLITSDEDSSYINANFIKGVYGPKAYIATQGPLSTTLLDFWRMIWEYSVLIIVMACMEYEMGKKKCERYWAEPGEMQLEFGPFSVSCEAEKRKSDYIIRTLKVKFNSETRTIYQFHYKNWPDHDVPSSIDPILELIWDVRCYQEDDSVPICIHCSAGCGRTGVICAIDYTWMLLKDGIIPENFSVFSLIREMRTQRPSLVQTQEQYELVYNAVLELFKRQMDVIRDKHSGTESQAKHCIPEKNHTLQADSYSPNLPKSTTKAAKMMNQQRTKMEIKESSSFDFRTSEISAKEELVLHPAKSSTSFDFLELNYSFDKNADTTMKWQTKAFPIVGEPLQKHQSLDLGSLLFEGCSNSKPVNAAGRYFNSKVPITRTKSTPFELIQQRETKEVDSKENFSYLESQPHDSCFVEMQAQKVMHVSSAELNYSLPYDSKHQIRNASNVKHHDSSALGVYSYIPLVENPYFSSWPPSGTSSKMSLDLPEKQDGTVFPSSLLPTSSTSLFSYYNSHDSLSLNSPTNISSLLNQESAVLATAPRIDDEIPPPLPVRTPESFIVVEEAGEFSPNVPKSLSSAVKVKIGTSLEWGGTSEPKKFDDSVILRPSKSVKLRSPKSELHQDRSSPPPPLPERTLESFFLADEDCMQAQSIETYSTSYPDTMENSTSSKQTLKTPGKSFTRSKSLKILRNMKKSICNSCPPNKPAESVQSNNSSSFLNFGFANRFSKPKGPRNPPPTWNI
In words: LYP phosphatase inhibition for selectivity, dose response, selectivity assay for LMPTP inhibitor project, biochemical, fluorescence, LYP catalytic domain (AID 652006). Particulars: read-out: IC50_Mean. In kind it is functional.

T1 sequence (P65502 whole entry): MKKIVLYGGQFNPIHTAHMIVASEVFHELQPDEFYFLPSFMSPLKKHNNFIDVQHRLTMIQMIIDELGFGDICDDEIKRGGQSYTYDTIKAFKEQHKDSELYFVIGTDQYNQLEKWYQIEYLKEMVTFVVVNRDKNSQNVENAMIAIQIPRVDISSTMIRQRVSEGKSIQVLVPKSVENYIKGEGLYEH
T5 sequence (Q9P0U3 whole entry, the tested form may be a part): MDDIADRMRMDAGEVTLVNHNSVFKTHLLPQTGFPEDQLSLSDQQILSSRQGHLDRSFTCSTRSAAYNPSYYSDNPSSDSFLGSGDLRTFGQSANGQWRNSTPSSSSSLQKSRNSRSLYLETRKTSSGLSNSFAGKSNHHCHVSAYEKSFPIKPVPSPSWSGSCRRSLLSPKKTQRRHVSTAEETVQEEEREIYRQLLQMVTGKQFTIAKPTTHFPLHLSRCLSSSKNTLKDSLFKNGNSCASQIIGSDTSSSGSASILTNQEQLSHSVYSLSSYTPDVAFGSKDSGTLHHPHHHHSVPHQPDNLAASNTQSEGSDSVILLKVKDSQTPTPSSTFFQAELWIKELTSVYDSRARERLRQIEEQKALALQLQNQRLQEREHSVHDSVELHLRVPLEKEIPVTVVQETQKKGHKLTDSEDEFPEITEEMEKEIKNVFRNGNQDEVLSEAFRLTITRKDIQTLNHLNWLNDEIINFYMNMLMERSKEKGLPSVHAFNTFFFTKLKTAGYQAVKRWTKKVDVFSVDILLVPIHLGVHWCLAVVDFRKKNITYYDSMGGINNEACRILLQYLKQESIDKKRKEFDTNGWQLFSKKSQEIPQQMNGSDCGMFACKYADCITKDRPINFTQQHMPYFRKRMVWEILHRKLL
T6 sequence (P63165 whole entry): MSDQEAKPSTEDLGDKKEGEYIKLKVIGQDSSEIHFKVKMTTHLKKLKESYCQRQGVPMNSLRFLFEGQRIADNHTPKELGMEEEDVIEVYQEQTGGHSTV
Sequence of Induced myeloid leukemia cell differentiation protein Mcl-1 (Q07820 whole entry, the tested form may be a part): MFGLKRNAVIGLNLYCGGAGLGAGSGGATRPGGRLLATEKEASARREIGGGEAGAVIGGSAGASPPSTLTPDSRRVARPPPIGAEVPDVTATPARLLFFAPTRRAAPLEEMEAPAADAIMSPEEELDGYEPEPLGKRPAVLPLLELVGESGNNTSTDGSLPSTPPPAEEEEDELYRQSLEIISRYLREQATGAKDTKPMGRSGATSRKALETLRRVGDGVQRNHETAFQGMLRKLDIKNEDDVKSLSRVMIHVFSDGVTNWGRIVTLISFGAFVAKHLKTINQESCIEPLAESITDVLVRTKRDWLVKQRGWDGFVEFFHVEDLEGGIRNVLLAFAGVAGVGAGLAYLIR
Sequence of Steroidogenic factor 1 (Q13285 whole entry): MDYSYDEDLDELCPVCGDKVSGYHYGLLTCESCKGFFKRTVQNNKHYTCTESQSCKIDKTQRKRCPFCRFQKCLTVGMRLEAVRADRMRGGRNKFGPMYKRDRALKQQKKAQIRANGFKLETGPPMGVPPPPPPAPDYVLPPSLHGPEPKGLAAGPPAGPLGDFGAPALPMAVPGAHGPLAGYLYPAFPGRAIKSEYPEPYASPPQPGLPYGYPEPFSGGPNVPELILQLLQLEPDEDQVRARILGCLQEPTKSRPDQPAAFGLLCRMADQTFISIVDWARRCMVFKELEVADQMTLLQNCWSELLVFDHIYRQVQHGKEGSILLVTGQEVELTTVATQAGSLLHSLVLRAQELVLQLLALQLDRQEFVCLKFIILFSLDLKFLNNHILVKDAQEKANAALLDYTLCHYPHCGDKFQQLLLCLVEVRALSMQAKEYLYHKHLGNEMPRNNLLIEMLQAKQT
Sequence of DNA repair and recombination protein RAD54-like (Q92698 whole entry): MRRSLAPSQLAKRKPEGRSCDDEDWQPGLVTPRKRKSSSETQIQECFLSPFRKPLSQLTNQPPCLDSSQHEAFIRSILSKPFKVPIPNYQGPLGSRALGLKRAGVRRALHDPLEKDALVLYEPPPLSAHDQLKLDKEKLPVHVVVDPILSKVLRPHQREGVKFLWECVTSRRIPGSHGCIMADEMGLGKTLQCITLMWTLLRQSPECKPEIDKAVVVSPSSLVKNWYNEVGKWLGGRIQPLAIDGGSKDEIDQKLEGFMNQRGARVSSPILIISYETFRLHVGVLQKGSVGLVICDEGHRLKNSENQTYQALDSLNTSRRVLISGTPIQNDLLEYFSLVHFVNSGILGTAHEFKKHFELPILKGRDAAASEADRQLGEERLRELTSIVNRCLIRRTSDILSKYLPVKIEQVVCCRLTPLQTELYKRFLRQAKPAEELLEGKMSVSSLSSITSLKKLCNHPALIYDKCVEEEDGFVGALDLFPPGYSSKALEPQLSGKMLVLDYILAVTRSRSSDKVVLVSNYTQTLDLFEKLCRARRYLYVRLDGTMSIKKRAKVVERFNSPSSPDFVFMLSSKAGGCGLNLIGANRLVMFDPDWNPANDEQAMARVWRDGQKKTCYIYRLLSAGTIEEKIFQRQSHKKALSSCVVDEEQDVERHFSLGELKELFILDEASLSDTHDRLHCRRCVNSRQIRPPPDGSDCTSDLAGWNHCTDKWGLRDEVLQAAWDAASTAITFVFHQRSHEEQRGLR
Sequence of Glycogen synthase kinase-3 beta (P49841 whole entry): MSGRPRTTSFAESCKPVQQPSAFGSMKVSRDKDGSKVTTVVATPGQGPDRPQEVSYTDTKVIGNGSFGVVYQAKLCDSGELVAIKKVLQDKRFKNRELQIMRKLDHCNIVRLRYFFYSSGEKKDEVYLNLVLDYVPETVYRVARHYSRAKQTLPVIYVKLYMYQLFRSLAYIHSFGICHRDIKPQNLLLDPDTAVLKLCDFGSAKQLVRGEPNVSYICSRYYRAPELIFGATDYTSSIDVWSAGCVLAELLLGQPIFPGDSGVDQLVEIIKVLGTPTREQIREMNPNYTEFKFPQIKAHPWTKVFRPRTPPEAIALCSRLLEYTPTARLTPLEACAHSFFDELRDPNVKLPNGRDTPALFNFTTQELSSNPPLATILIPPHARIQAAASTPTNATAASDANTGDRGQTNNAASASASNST
Sequence of Cell division cycle 7-related protein kinase (O00311 whole entry): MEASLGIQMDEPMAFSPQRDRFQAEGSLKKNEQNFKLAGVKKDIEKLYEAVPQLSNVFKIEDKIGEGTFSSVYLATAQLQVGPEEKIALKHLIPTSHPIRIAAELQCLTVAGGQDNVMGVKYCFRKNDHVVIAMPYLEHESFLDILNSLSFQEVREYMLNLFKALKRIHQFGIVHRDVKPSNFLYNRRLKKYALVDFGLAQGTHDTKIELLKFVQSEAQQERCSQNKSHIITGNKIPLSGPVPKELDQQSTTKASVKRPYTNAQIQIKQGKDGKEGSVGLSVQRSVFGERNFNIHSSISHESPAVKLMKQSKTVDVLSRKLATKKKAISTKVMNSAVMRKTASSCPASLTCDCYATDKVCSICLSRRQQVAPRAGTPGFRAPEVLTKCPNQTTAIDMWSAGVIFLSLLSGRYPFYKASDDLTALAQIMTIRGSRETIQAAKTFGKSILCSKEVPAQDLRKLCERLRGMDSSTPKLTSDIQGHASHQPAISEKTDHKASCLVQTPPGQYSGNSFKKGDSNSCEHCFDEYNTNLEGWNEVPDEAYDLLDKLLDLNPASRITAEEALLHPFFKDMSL
Sequence of Dual specificity protein kinase CLK4 (Q9HAZ1 whole entry): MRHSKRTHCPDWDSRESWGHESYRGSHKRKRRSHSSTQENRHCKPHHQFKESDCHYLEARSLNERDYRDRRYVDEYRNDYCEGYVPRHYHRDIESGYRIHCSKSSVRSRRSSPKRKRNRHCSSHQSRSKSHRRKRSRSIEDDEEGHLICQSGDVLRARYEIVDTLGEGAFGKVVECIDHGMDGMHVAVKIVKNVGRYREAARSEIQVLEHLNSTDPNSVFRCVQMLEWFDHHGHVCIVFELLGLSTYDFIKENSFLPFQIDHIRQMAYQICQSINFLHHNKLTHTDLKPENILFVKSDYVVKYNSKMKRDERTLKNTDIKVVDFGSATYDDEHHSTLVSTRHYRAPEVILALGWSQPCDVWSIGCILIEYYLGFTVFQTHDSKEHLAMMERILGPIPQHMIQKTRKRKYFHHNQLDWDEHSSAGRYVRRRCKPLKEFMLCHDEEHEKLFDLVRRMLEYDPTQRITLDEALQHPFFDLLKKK
Sequence of Interleukin-1 receptor-associated kinase 4 (Q9NWZ3 whole entry): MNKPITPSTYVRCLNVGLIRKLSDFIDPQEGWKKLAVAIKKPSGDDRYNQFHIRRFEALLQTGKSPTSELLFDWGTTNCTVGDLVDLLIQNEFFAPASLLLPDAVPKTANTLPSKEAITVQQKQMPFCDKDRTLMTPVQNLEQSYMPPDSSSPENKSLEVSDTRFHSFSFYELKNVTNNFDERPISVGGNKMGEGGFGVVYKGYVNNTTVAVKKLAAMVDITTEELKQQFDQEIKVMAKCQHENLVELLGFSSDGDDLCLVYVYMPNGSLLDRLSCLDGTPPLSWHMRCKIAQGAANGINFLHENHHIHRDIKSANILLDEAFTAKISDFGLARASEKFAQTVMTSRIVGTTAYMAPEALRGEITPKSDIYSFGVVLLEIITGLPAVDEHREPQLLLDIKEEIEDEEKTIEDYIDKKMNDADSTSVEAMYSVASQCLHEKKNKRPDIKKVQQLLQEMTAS
Sequence of Serine/threonine-protein kinase pim-1 (P11309 whole entry): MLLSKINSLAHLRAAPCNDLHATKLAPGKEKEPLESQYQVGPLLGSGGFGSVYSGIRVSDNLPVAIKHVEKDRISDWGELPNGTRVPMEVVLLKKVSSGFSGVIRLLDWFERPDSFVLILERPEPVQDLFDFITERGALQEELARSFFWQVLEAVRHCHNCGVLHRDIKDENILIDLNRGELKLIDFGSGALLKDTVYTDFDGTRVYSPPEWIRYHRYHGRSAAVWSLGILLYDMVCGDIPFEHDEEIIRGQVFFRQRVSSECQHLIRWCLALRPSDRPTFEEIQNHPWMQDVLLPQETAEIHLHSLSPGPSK

On to `Cn1c(N)c(C(=O)COC(=O)c2cc(-c3ccco3)nc3ccccc23)c(=O)n(C)c1=O`, for which the IC50 is 15.9 µM (active) in [1]; 2.97 µM (active) in [2]; 2.52 µM (active) in assay [3]; 6.76 µM (active) in assay [4]; 5.78 µM (active) in assay [5].
With `Cc1ccc(C(=O)NC(=S)NNC(=O)CC#N)cc1`, the results for the EC50 in assay [6], in [7] and in assay [8] were > 38 µM (not active), > 150 µM (inconclusive) and > 104 µM (inactive), respectively.
Take `Cc1ccc(NC(=O)c2ccccc2NS(=O)(=O)c2ccc(Cl)s2)cc1S(=O)(=O)N1CCOCC1`: the IC50 in [9] is 9.12 µM (active); in assay [10] it was 7.23 µM (active).
Turning to `C=CCOc1c(Br)cc(/C=C2/N=C(S)N(C(C)=O)C2=O)cc1OC`, the IC50 in [11] is 7.01 µM (active); in [12], 8.78 µM (active).
For `O=C(COC(=O)c1nc(Cl)ccc1Cl)Nc1ccc2[nH]c(O)nc2c1`, the IC50 in assay [13] is > 66.6 µM (inactive); in [14] it was 20.8 µM (inactive).
As to `CS(=O)(=O)c1cccc(-c2nnc(NC(=O)c3ccc(S(=O)(=O)N4CCCC4)cc3)o2)c1`, the AC50 in [15] was 113 µM (active).
As for `COCC(C)N1CCC(Oc2cccc(C(=O)NCCc3ccccc3)c2)CC1` (stereo unspecified), the values for the IC50 in assay [9] and in [10] were 7.46 µM (active) and 4.22 µM (active), respectively.
Turning to `Cc1cc(OCC(=O)NCc2cccnc2)c2c(C)c(C)c(=O)oc2c1`, the IC50 in assay [16] was 35.9 µM (inactive); in assay [17], 2.88 µM (active); at Steroidogenic factor 1, 2.35 µM (active).
Turning to `CC(C)(O)CNc1cc(-c2c[nH]c3ncccc23)cc(Cl)n1`, the Ki in assay [18] is 0.002 µM (active); in assay [19], 0.126 µM (active); in [20] it was 2.51 µM (active); in assay [21], 1 µM (active); in assay [22] it was 0.316 µM (active); in [23], 0.00501 µM (active). Also, the Ki in [24] is 0.316 µM (active).
As to `CN(C)CCCNc1c2c(nc3ccccc13)CCC2`, the AC50 in assay [25] was 4.86 µM (active); in assay [26] it was 20.8 µM (active).
Regarding `COc1cccc2c1[C@@H]1CN(CCCCn3c(=O)[nH]c4c(sc5ncc(-c6ccccc6)nc54)c3=O)C[C@@H]1CO2` [FIDUXOSIN HYDROCHLORIDE], the IC50 in assay [27] is 13.2 µM (active); in assay [28], 24.7 µM (inactive).

As a reminder, the EC50 is the midpoint of the concentration-response curve. The term AC50 denotes the midpoint of the concentration-response curve, whichever way the signal moves. The Ki is the dissociation constant of the complex between target and ligand, obtained from inhibition or displacement.
